# From ChEMBL document CHEMBL2034889, “The design and synthesis of novel, potent and orally bioavailable N-aryl piperazine-1-carboxamide CCR2 antagonists with very high hERG selectivity” (Bioorg Med Chem Lett, 2012)
# Active and inactive are the calls of the source. No cut-off for these calls is given here.
# Assays:
# [1] = biological target: T1, C-C chemokine receptor type 2 (Homo sapiens, UniProt P41597); experiment: Displacement of 125I-MCP1 from human CCR2 receptor expressed in human THP-1 cell membrane by SPA assay; format: cell membranes
# [2] = biological target: T1, C-C chemokine receptor type 2; experiment: Antagonist activity at human CCR2 receptor expressed in human THP-1 cells assessed as inhibition of MCP1-induced Ca2+ flux by FLIPR analysis; format: functional, cell-based
# [3] = Intrinsic clearance in rat hepatocytes assessed per 10^6 cells; format: ADME, cell-based, Hepatocyte; settings: read-out: CLH
# [4] = Intrinsic clearance in dog hepatocytes assessed per 10^6 cells; format: ADME, cell-based, Canis lupus familiaris, Hepatocyte; settings: read-out: CLH
# [5] = Intrinsic clearance in human hepatocytes assessed per 10^6 cells; format: ADME, cell-based, Hepatocyte; settings: read-out: CLH
# [6] = Clearance in rat at 4 umol/kg, iv; format: ADME, organism-based; settings: in vivo
# [7] = Clearance in dog at 4 umol/kg, iv; format: ADME, organism-based, Canis lupus familiaris; settings: in vivo
# [8] = Volume of distribution at steady state in rat at 4 umol/kg, iv; format: ADME, organism-based; settings: in vivo, read-out: Vdss
# [9] = Volume of distribution at steady state in dog at 4 umol/kg, iv; format: ADME, organism-based, Canis lupus familiaris; settings: in vivo, read-out: Vdss
# [10] = Half life in rat at 4 umol/kg, iv; format: ADME, organism-based; settings: in vivo
# [11] = Half life in dog at 4 umol/kg, iv; format: ADME, organism-based, Canis lupus familiaris; settings: in vivo
# [12] = Oral bioavailability in rat at 11 umol/kg; format: ADME, organism-based; settings: in vivo
# [13] = Oral bioavailability in dog at 4 umol/kg; format: ADME, organism-based, Canis lupus familiaris; settings: in vivo
# [14] = Lipophilicity, log D of the compound at pH 7.4; format: physicochemical; settings: buffer
# [15] = Lipophilicity, log P of the compound at pH 7.4; format: physicochemical; settings: buffer
# [16] = Dissociation constant, pKa of the compound; format: physicochemical
# [17] = Aqueous solubility of the compound; format: physicochemical; settings: buffer
# [18] = biological target: T2, Voltage-gated inwardly rectifying potassium channel KCNH2 (Homo sapiens, UniProt Q12809); experiment: Inhibition of human ERG by electrophysiology assay
# [19] = biological target: T1, C-C chemokine receptor type 2; experiment: Antagonist activity at human CCR2 in human peripheral whole blood assessed as inhibition of MCP1-induced L-selectin shedding; format: functional, tissue-based; settings: read-out: pA2 (converted)
# [20] = biological target: C-C chemokine receptor type 2 (Mus musculus, UniProt P51683); experiment: Antagonist activity at mouse CCR2 receptor expressed in human THP-1 cells assessed as inhibition of MCP1-induced Ca2+ flux by FLIPR analysis; format: functional, cell-based
# [21] = biological target: T3, C-C chemokine receptor type 2 (Rattus norvegicus, UniProt O55193); experiment: Antagonist activity at rat CCR2 receptor expressed in human THP-1 cells assessed as inhibition of MCP1-induced Ca2+ flux by FLIPR analysis; format: functional, cell-based
# T3 sequence (O55193 whole entry): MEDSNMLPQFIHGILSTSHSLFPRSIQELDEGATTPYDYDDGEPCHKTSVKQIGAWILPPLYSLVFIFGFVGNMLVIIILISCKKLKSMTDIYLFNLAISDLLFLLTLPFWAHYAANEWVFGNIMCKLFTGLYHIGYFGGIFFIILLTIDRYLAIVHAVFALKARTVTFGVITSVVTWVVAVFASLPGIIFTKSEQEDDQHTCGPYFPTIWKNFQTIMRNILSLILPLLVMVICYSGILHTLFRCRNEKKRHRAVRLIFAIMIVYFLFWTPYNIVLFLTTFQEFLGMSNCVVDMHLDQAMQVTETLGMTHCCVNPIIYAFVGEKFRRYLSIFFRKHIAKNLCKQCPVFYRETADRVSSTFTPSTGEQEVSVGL
# [22] = Antagonist activity at dog CCR2 receptor expressed in human THP-1 cells assessed as inhibition of MCP1-induced Ca2+ flux by FLIPR analysis; format: functional, cell-based
# [23] = biological target: T4, C-C chemokine receptor type 1 (Homo sapiens) (UniProt P32246); experiment: Inhibition of human CCR1 by FLIPR analysis
# T4 sequence (whole entry): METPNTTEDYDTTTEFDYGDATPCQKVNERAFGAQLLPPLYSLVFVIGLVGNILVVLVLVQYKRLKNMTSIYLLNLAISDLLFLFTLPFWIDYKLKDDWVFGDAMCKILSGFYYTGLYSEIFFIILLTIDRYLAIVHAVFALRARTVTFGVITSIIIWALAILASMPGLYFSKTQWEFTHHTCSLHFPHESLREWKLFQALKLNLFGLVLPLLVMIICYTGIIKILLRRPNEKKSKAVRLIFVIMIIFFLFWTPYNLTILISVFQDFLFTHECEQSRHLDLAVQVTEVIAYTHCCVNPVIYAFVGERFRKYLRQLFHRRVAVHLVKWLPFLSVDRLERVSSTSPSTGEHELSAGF
# [24] = biological target: C-C chemokine receptor type 8 (Homo sapiens) (UniProt P51685); experiment: Inhibition of human CCR8 by FLIPR analysis
# [25] = biological target: C-X-C chemokine receptor type 4 (Homo sapiens) (UniProt P61073); experiment: Inhibition of human CXCR4 by FLIPR analysis
# [26] = biological target: T5, C-X-C chemokine receptor type 5 (Homo sapiens) (UniProt P32302); experiment: Inhibition of human CXCR5 by FLIPR analysis
# T5 sequence (whole entry): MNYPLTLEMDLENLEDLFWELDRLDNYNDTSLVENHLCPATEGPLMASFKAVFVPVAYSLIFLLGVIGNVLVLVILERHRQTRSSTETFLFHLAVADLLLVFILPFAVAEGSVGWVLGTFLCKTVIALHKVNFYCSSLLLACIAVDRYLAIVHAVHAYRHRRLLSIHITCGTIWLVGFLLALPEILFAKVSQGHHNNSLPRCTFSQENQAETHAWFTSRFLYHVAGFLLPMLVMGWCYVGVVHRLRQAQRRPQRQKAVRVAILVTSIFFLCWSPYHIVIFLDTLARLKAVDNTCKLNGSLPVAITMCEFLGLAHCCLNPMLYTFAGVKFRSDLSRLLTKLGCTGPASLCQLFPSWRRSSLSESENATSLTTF
# [27] = biological target: C-C chemokine receptor type 5 (Homo sapiens, UniProt P51681); experiment: Inhibition of human CCR5 by FLIPR analysis
# [28] = biological target: T2, Voltage-gated inwardly rectifying potassium channel KCNH2
# T1 sequence (P41597 whole entry): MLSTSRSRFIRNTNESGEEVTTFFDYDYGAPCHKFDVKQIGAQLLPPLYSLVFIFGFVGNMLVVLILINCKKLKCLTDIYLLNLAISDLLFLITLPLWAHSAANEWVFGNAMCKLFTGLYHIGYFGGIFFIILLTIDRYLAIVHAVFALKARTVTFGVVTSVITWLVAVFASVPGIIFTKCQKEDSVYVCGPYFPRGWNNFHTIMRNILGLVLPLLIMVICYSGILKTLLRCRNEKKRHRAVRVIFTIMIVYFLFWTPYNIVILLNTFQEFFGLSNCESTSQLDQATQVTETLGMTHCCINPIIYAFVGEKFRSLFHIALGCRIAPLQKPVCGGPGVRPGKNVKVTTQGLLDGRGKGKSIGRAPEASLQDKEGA
# T2 sequence (Q12809 whole entry): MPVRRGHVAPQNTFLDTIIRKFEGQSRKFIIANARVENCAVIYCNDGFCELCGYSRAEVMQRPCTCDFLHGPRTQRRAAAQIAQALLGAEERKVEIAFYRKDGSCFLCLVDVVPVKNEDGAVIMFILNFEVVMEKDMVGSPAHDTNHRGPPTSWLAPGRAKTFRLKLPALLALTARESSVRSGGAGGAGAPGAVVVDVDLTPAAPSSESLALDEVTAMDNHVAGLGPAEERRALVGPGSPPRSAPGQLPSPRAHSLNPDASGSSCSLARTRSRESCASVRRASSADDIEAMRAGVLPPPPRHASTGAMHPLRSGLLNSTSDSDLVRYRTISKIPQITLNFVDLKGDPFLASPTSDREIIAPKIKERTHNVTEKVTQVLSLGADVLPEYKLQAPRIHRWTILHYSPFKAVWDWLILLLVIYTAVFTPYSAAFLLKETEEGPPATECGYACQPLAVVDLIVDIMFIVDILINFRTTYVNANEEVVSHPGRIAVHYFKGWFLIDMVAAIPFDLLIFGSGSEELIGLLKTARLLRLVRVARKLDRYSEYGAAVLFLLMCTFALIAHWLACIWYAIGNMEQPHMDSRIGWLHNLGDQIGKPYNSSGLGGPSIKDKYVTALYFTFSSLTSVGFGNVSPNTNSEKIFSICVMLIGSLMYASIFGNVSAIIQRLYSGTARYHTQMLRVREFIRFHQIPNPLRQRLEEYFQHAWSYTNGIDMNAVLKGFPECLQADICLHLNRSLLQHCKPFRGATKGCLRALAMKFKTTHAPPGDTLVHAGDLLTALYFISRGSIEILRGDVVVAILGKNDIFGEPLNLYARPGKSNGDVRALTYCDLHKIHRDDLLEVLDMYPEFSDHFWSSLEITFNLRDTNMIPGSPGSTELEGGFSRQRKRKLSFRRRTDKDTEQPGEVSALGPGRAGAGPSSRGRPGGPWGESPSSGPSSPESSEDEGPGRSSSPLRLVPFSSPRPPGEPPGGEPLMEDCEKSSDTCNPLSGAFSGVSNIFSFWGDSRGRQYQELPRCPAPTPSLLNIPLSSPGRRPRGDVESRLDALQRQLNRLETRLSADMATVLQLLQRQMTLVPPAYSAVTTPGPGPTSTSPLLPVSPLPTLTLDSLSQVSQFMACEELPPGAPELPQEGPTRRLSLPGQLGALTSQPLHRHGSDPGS
# C-C chemokine receptor type 8 (Homo sapiens), sequence (P51685 whole entry): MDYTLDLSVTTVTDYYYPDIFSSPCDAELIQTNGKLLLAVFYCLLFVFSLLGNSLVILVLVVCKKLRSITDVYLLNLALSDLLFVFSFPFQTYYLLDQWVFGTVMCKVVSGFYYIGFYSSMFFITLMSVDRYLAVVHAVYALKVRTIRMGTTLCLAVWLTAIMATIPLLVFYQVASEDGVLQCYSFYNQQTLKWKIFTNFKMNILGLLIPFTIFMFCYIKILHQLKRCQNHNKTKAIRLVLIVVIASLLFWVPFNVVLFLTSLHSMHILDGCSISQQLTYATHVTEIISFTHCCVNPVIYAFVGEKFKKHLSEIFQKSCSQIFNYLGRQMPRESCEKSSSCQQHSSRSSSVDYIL
# C-X-C chemokine receptor type 4 (Homo sapiens), sequence (P61073 whole entry): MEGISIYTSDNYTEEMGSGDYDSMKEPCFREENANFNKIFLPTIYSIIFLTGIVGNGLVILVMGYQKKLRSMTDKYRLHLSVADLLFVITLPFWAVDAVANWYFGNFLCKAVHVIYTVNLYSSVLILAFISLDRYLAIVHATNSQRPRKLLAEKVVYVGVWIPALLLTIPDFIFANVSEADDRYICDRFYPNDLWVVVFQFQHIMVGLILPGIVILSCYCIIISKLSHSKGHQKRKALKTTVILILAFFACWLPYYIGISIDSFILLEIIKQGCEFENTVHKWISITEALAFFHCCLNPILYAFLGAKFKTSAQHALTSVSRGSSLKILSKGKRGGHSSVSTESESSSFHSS
# C-C chemokine receptor type 2 (Mus musculus, UniProt P51683), sequence (P51683 whole entry): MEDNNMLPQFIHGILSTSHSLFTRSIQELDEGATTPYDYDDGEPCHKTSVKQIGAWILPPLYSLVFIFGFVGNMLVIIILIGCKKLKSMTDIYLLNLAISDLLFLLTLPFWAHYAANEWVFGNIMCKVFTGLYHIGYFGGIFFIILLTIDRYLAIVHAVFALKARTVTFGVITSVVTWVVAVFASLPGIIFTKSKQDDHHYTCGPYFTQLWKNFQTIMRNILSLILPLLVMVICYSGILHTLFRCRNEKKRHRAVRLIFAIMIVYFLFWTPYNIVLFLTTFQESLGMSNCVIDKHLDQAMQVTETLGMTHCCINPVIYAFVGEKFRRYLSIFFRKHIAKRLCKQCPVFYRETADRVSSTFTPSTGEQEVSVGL
# C-C chemokine receptor type 5, sequence (P51681 whole entry): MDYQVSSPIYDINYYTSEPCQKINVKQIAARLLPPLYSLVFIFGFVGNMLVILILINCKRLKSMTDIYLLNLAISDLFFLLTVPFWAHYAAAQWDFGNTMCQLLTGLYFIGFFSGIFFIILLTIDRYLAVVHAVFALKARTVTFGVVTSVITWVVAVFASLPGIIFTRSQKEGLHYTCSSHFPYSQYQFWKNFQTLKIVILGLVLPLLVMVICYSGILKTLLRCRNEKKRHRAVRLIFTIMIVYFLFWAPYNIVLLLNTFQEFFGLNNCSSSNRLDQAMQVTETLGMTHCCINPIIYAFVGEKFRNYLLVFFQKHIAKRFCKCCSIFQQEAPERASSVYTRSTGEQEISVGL
smiles,measurement,setting,value
CC(C)N1CCN[C@@H](C(=O)N2CCN(C(=O)Nc3ccc(Cl)c(Cl)c3)CC2)C1,IC50,[1],3.5 nM
same,IC50,[2],5.8 nM
same,hepatocyte CLint,[3],< 2 µL/min/1e6 cells
same,hepatocyte CLint,[4],< 2 µL/min/1e6 cells
same,hepatocyte CLint,[5],< 2 µL/min/1e6 cells
same,clearance,[6],30 mL/min/kg
same,clearance,[7],17 mL/min/kg
same,Vd,[8],4 L/kg
same,Vd,[9],8.5 L/kg
same,half-life,[10],3 h
same,half-life,[11],9.1 h
same,bioavailability,[12],11%
same,bioavailability,[13],83%
same,logD,[14],2.21
same,logD,[15],2.7
same,pKa,[16],7.8
same,solubility,[17],> 3.1 mM
same,IC50,[18],60000 nM
same,Kb,[19],3.47 nM
same,IC50,[20],1200 nM
same,IC50,[21],200 nM
same,IC50,[22],1600 nM
same,inhibition,[23],inactive
same,inhibition,[24],inactive
same,inhibition,[25],inactive
same,inhibition,[26],inactive
same,IC50,[27],22 nM
same,IC50,[28],17000 nM
